Counter-ions that a name gives are not always drawn.
Assays:
[1] = Solid stability (10 days), impurity increase by HPLC; format: physicochemical
[2] = Thermodynamic solubility in different media (FaSSGF, FaSSIF, FeSSIF, water) at 37° C.; format: physicochemical; details: 24 hours
[3] = Solid stability of crystal form, XRPD after stress conditions; format: physicochemical
human KRAS G12C protein = biological target: T1, human KRAS G12C protein (Homo sapiens, UniProt P01116, G12C); assay: Thermal shift: melting temperature of KRAS G12C protein; format: binding; details: KRAS G12C protein 5.37 μM with compound 10 μM, 1 hour
T1 construct: purchased Beijing SinoBiological Co., Ltd. 12259-H07E2
Method: In this experiment, the thermal shift method was used to test the degree of change in the melting temperature (Tm) of the KRAS G12C protein before and after the binding of the compound, in order to characterize the ability of the compound to improve the stability of the KRAS G12C protein.
The specific experiment operation was as follows: • A solution containing […] (pH 7.5), 1 mM DTT, 5× SYPRO Orange and 150 mM NaCl was prepared as the experimental buffer, and a final concentration of 5.37 μM human KRAS G12C protein was added thereto. The reaction mixture was divided into 8 rows of PCR tubes, each 19.5 μL, and 0.5 μL of the test compound or DMSO were added respectively, so that the total reaction system was 20 μL, the final concentration of the compound was 10 μM, and 2.5% DMSO was set as the solvent control. After incubating at room temperature in the dark for 1 hour, the PCR tube was put into the PCR instrument, QuantStudio Software v1.3 was opened, and the melting temperature of KRAS G12C protein in different treatment groups was detected by melt curve function (heating from 25° C. to 95° C., 0.03° C./s).
The experimental data file of PCR instrument was imported into thermal shift software, and the melting temperature (Tm) of each treatment group was obtained, and the change value of melting temperature (ATm) was obtained by subtracting the Tm of DMSO solvent control group.

[4] = Plasma stability, rat plasma; format: in vitro ADME; details: rat plasma, 37° C.
Method: (§1) Animal or human whole blood was collected, then the blood was put into a test tube containing anticoagulant, centrifuged at 3500 rpm for 10 min, and the upper layer of pale yellow plasma was collected. • 2) 10 μM of tested compound (m/M/V=C)
(§2) The compound was weighed, the stock solution was prepared with DMSO and the working solution was prepared with 100 mM phosphate buffer. • 3) 10 μM of positive control • (1) Propantheline (Propantheline Mr=449.4 Da)
(§3) • 1) 285 μL of plasma and 15 μL of 10 μM compound (tested compound) were added in turn in a 96-well plate, and incubated at 37° C. • 2) 40 μL was taken out at 0, 15, 30, 60, 90, 120 min, respectively, and 160 μL of acetonitrile termination solution containing internal standard was added. • 3) After centrifugation (3500 rpm, 10 min), 50 μL of supernatant was taken out, and then diluted with 50 μL DDH2O and injected to LC-MS/MS.
(§4) • instrument: Shimadzu LC-20 AD • chromatographic column: phenomenex Gemiu® C18 (50*4.6 mm, 5 μM particle size); • mobile phase: A: acetonitrile, B: 0.1% formic acid solution 0-8 min: 5% A→95% A, 2.0-2.1 min: 90% A→5% A; flow rate: 0.8 mL/min; running time: 5.0 min; injection volume: 5 μL.
(§5) • instrument: API4000 Liquid Chromatography-Mass Spectrometry, AB, USA; • the ion source was electrospray ionization source (ESI); • the temperature of dry gas (N2) was 500° C.; • electrospray voltage was 5500V; • the detection method was positive ion detection; • the scanning mode was selective response monitoring (MRM); • the scanning time was 0.1 s.

[5] = Plasma stability, dog plasma; format: in vitro ADME; details: dog plasma, 37° C.
Method: as §1, §2, §3, §4, §5

[6] = Plasma stability, mouse plasma; format: in vitro ADME; details: mouse
Method: as §1, §2, §3, §4, §5

[7] = Plasma stability, human plasma; format: in vitro ADME; details: human
Method: as §1, §2, §3, §4, §5

SMILES: C=CC(=O)N1C[C@H](C)N(c2nc(=O)n(-c3c(SC)ccnc3C(C)C)c3nc(-c4c(N)ccc(Cl)c4F)c(Cl)cc23)C[C@H]1C [Crystal form I of hydroxyethyl sulfonate, P-4-((2S,5R)-4-acryloyl-2,5-dimethylpiperazin-1-yl)-7-(6-amino-3-chloro-2-fluorophenyl)-6-chloro-1-(2-isopropyl-4-(methylthio)pyridin-3-yl)pyrido[2,3-d]pyrimidin-2(1H)-one]
- Stability of solid (10 days) (impurity increase %) ([1]; 50° C. & 75% RH): 0.30%
- Stability of solid (10 days) (impurity increase %) ([1]; 60° C.): 0.26%
- Stability of solid (10 days) (impurity increase %) ([1]; 92.5% RH): 0.01%
- Stability of solid (10 days) (impurity increase %) ([1]; Light (5000±500 lux)): 0.27%
- Solubility ([2]; FaSSGF): 314.6 µg/mL
- Solubility ([2]; FaSSIF): 158.8 µg/mL
- Solubility ([2]; FeSSIF): 347.3 µg/mL
- Solubility ([2]; H2O): 7.4 µg/mL
- Crystal form of hydroxyethyl sulfonate (XRPD) ([3]; High humidity (25° C., 75%, 10 days)): Crystal form I
- Crystal form of hydroxyethyl sulfonate (XRPD) ([3]; High humidity (25° C., 90%, 10 days)): Crystal form I
- Crystal form of hydroxyethyl sulfonate (XRPD) ([3]; High temperature (40° C., 30 days)): Crystal form I
- Crystal form of hydroxyethyl sulfonate (XRPD) ([3]; High temperature (60° C., 30 days)): Crystal form I
- Crystal form of hydroxyethyl sulfonate (XRPD) ([3]; Initial crystal form): Crystal form I
- Crystal form of hydroxyethyl sulfonate (XRPD) ([3]; Light (≥1.2 × 10^6 lux-h, 10 days)): Crystal form I
- Crystal form of hydroxyethyl sulfonate (XRPD) ([3]; Micropowder): Crystal form I
- Solid stability (in words) ([3]; light, high humidity, high temperature, and micropowder conditions): relatively stable

SMILES: C=CC(=O)N1CCN(c2nc(=O)n(-c3c(SC)ccnc3C(C)C)c3nc(-c4c(O)cccc4F)c(F)cc23)[C@@H](C)C1 [Embodiment 1, 4-((S)-4-Acryloyl-2-methylpiperazin-1-yl)-6-fluoro-7-(2-fluoro-6-hydroxyphenyl)-1-(2-isopropyl-4-(methylthio)pyridin-3-yl)pyrido[2,3-d]pyrimidin-2(1H)-one]
- Tm (human KRAS G12C protein): 60.2 °C

SMILES: C=CC(=O)N1C[C@H](C)N(c2nc(=O)n(-c3c(SC)ccnc3C(C)C)c3nc(-c4c(O)cccc4F)c(F)cc23)C[C@H]1C [Embodiment 2, 4-((2S,5R)-4-acryloyl-2,5-dimethylpiperazin-1-yl)-6-fluoro-7-(2-fluoro-6-hydroxyphenyl)-1-(2-isopropyl-4-(methylthio)pyridin-3-yl)pyrido[2,3-d]pyrimidin-2(1H)-one]
- Tm (human KRAS G12C protein): 57.2 °C

SMILES: C=CC(=O)N1CCN(c2nc(=O)n(-c3c(SC)ccnc3C(C)C)c3nc(-c4c(N)cccc4F)c(F)cc23)[C@@H](C)C1 [Embodiment 5, 4-((S)-4-acryloyl-2-methylpiperazin-1-yl)-7-(2-amino-6-fluorophenyl)-6-fluoro-1-(2-isopropyl-4-(methylthio)pyridin-3-yl)pyrido[2,3-d]pyrimidin-2(1H)-one]
- Tm (human KRAS G12C protein): 64.4 °C

SMILES: C=CC(=O)N1CCN(c2nc(=O)n(-c3c(SC)ccnc3C(C)C)c3nc(-c4c(N)ccc(Cl)c4F)c(Cl)cc23)[C@@H](C)C1 [Embodiment 9, 4-((S)-4-acryloyl-2-methylpiperazin-1-yl)-7-(6-amino-3-chloro-2-fluorophenyl)-6-chloro-1-(2-isopropyl-4-(methylthio)pyridin-3-yl)pyrido[2,3-d]pyrimidin-2(1H)-one]
- Tm (human KRAS G12C protein): 60.2 °C

SMILES: C=CC(=O)N1C[C@H](C)N(c2nc(=O)n(-c3c(SC)ccnc3C(C)C)c3nc(-c4c(N)ccc(Cl)c4F)c(Cl)cc23)C[C@H]1C [Embodiment 13, 4-((2S,5R)-4-acryloyl-2,5-dimethylpiperazin-1-yl)-7-(6-amino-3-chloro-2-fluorophenyl)-6-chloro-1-(2-isopropyl-4-(methylthio)pyridin-3-yl)pyrido[2,3-d]pyrimidin-2(1H)-one]
- Tm (human KRAS G12C protein): 58.0 °C

SMILES: CC[C@H](C)C(=O)O[C@H]1C[C@@H](C)C=C2C=C[C@H](C)[C@H](CC[C@@H]3C[C@@H](O)CC(=O)O3)[C@H]21 [Lovastatin, reference compound]
- t1/2 [4]: 6.69 min
- Residual rate (%) 0 min ([4]; 0 min): 100.00%
- Residual rate (%) 15 min ([4]; 15 min): 21.15%
- Residual rate (%) 30 min ([4]; 30 min): 1.77%
- Residual rate (%) 60 min ([4]; 60 min): 0.36%
- Residual rate (%) 120 min ([4]; 120 min): 0.30%
- t1/2 [5]: 80.22 min
- Residual rate (%) 0 min ([5]; 0 min): 100.00%
- Residual rate (%) 15 min ([5]; 15 min): 95.25%
- Residual rate (%) 30 min ([5]; 30 min): 95.45%
- Residual rate (%) 60 min ([5]; 60 min): 75.66%
- Residual rate (%) 120 min ([5]; 120 min): 36.25%

SMILES: CC(C)[N+](C)(CCOC(=O)C1c2ccccc2Oc2ccccc21)C(C)C [Propantheline, reference compound]
- Residual rate (%) 0 min ([6]; 0 min, 0.5 μM): 100.00%
- Residual rate (%) 15 min ([6]; 15 min, 0.5 μM): 79.79%
- Residual rate (%) 30 min ([6]; 30 min, 0.5 μM): 48.66%
- Residual rate (%) 60 min ([6]; 60 min, 0.5 μM): 23.39%
- Residual rate (%) 120 min ([6]; 120 min, 0.5 μM): 6.66%
- half-life at 0.5 μM ([6]; plasma): 27.7 min
- Residual rate (%) 0 min ([7]; 0 min, 0.5 μM): 100.00%
- Residual rate (%) 15 min ([7]; 15 min, 0.5 μM): 79.98%
- Residual rate (%) 30 min ([7]; 30 min, 0.5 μM): 50.52%
- Residual rate (%) 60 min ([7]; 60 min, 0.5 μM): 14.65%
- Residual rate (%) 120 min ([7]; 120 min, 0.5 μM): 0.72%
- half-life at 0.5 μM ([7]; plasma): 21 min

SMILES: C=CC(=O)N1C[C@H](C)N(c2nc(=O)n(-c3c(SC)ccnc3C(C)C)c3nc(-c4c(N)ccc(Cl)c4F)c(Cl)cc23)C[C@H]1C [crystal form II of sulfate, P-4-((2S,5R)-4-acryloyl-2,5-dimethylpiperazin-1-yl)-7-(6-amino-3-chloro-2-fluorophenyl)-6-chloro-1-(2-isopropyl-4-(methylthio)pyridin-3-yl)pyrido[2,3-d]pyrimidin-2(1H)-one]
- Stability of solid (10 days) (impurity increase %) ([1]; 50° C. & 75% RH, HPLC peak area normalization): 0.15%
- Stability of solid (10 days) (impurity increase %) ([1]; 60° C., HPLC peak area normalization): 0.91%
- Stability of solid (10 days) (impurity increase %) ([1]; 92.5% RH, HPLC peak area normalization): 0.56%
- Stability of solid (10 days) (impurity increase %) ([1]; Light (5000±500 lux), HPLC peak area normalization): 1.12%
- Solid stability (in words) ([1]; light, high humidity, high temperature and high humidity conditions): relatively stable
- Solubility ([2]; FaSSGF): 386.5 µg/mL
- Solubility ([2]; FaSSIF): 150.3 µg/mL
- Solubility ([2]; FeSSIF): 383.5 µg/mL
- Solubility ([2]; H2O): 13.2 µg/mL

Source: patent publication US20240325394A1, “SALT AND CRYSTAL FORM OF NITROGEN-CONTAINING HETEROCYCLIC DERIVATIVE, PREPARATION METHOD THEREFOR AND APPLICATION THEREOF” (SHANGHAI HANSOH BIOMEDICAL CO., LTD., priority 2020, published 2024)
